# Assay results reported in US20130116554A1, “X-RAY IMAGING AT LOW CONTRAST AGENT CONCENTRATIONS AND/OR LOW DOSE RADIATION” (priority 2010, published 2013).
# Tests used:
# [1] = Abdominal contrast enhanced CT in minipig, arterial phase, SNR of ROI; type: in vivo; conditions: for ASiR 60% [SNR] / Veo [SNR]: 80 kVp
# Protocol: (§1) An anaesthetized minipig (abdominal maximum and minimum diameters 36 cm and 20 cm, respectively) was imaged 3 times (imaging protocols 1, 2 and 3, Tables 3 and 4) on a Discovery CT 750 HD. Visipaque (60 mL) was injected at a rate of 2 mL/s into a jugular vein, followed by a 20 mL saline flush at the same injection rate. There was at least a 2 day washout period between each scanning session.
# (§2) Protocol 1 with a Visipaque concentration of 320 mg l/mL and 120 kVp tube voltage represents current standard of care (SoC) imaging for humans. Automated tube current modulation (≦500 mA) was used with a noise index level of 30 and a tube rotation time of 0.7 s. Post-contrast CT images were acquired during the arterial phase, the portal venous phase, the venous phase and the late phase. Image reconstruction was done by (1) FBP, (2) ASiR 60% and (3) Veo. Pixel size was 0.703 mm×0.703 mm×0.625 mm.
# (§3) Iodine contrast enhancement was assessed by measuring the signal-to-noise ratio (SNR) of circular regions of interest (ROI), see Tables 3 and 4. The SNR is calculated as ratio of mean ROI intensity in HU and standard deviation (SD). ROIs were placed in aorta and muscle (quadratus lumborum) in arterial phase images and in liver in venous phase images.
# [2] = Abdominal contrast enhanced CT in minipig, venous phase, SNR of ROI; type: in vivo; conditions: liver; for ASiR 60% [SNR] / Veo [SNR]: 80 kVp
# Protocol: as §1, §2, §3
# [3] = protocol 1: Visipaque 320 mg I/ml, 120 kVp, CTDIvol 6.7 mGy
# [4] = protocol 2: Visipaque 170 mg I/ml, CTDIvol 3.2 mGy
# [5] = protocol 3: Visipaque 120 mg I/ml, CTDIvol 6.4 mGy
compound,measurement,setting,value
"CC(=O)N(CC(O)CN(C(C)=O)c1c(I)c(C(=O)NCC(O)CO)c(I)c(C(=O)NCC(O)CO)c1I)c1c(I)c(C(=O)NCC(O)CO)c(I)c(C(=O)NCC(O)CO)c1I (stereo not shown) [Visipaque, iodixanol]",FBP [SNR],[1]; [3],8.3
same,ASiR 60% [SNR],[1]; [4],7.4
same,Veo [SNR],[1]; [4],12.8
same,ASiR 60% [SNR],[1]; [5],8.5
same,Veo [SNR],[1]; [5],14.2
same,FBP [SNR],[2]; [3],4.3
same,ASiR 60% [SNR],[2]; [4],3.5
same,Veo [SNR],[2]; [4],8.1
same,ASiR 60% [SNR],[2]; [5],4.7
same,Veo [SNR],[2]; [5],8.1
